Where two headings read alike, the source gives them in different places.
Settings: mouse, plasma, 1 h

SMILES | % Remaining (1 h) (10 µM) | further results
CCNC(=O)c1nnc(-c2cc(C(C)C)c(O)cc2O)n1-c1ccc(CN2CCC(C(=O)N3CCC(OC(=O)Nc4cccc5c4CN(C4CCC(=O)NC4=O)C5=O)CC3)CC2)cc1 (stereo not shown) [SDC-TRAP-0123, 1-(1-(4-(3-(2,4-Dihydroxy-5-isopropylphenyl)-5-(ethylcarbamoyl)-4H-1,2,4-triazol-4-yl)benzyl)piperidine-4-carbonyl)piperidin-4-yl (2-(2,6-dioxopiperidin-3-yl)-1-oxoisoindolin-4-yl)carbamate] | 95.6% | 
CCc1c2c(nc3ccc(OS(=O)(=O)c4cccc(C(=O)N5CCN(Cc6ccc(-n7c(O)nnc7-c7cc(C(C)C)c(O)cc7O)cc6)CC5)c4)cc13)-c1cc3c(c(=O)n1C2)COC(=O)C3(O)CC (stereo not shown) [SDC-TRAP-0389, 4,11-diethyl-4-hydroxy-3,14-dioxo-3,4,12,14-tetrahydro-1H-pyrano[3′,4′:6,7]indolizino[1,2-b]quinolin-9-yl 3-(4-(4-(3-(2,4-dihydroxy-5-isopropylphenyl)-5-hydroxy-4H-1,2,4-triazol-4-yl)benzyl)piperazine-1-carbonyl)benzenesulfonate] | 77.7% | 
CCNC(=O)c1nnc(-c2cc(C(C)C)c(O)cc2O)n1-c1ccc(Oc2ccc(C(=O)N3CCC(COC(=O)Nc4cccc5c4CN(C4CCC(=O)NC4=O)C5=O)CC3)cc2)cc1 (stereo not shown) [SDC-TRAP-0125, (1-(4-(4-(3-(2,4-Dihydroxy-5-isopropylphenyl)-5-(ethylcarbamoyl)-4H-1,2,4-triazol-4-yl)phenoxy)benzoyl)piperidin-4-yl)methyl (2-(2,6-dioxopiperidin-3-yl)-1-oxoisoindolin-4-yl)carbamate] | 99.4% | 
CC(C)c1cc(-c2nnc(O)n2-c2ccc(CN3CCN(C(=O)COC(=O)Nc4cccc5c4CN(C4CCC(=O)NC4=O)C5=O)CC3)cc2)c(O)cc1O (stereo not shown) [SDC-TRAP-0121, 2-(4-(4-(3-(2,4-dihydroxy-5-isopropylphenyl)-5-hydroxy-4H-1,2,4-triazol-4-yl)benzyl)piperazin-1-yl)-2-oxoethyl(2-(2,6-dioxopiperidin-3-yl)-1-oxoisoindolin-4-yl)carbamate] | 89.1% | 
CCNC(=O)c1nnc(-c2cc(C(C)C)c(O)cc2O)n1-c1ccc(CN2CCC(C(=O)N3CCC(COC(=O)Nc4cccc5c4CN(C4CCC(=O)NC4=O)C5=O)CC3)CC2)cc1 (stereo not shown) [SDC-TRAP-0124, (1-(1-(4-(3-(2,4-Dihydroxy-5-isopropylphenyl)-5-(ethylcarbamoyl)-4H-1,2,4-triazol-4-yl)benzyl)piperidine-4-carbonyl)piperidin-4-yl)methyl (2-(2,6-dioxopiperidin-3-yl)-1-oxoisoindolin-4-yl)carbamate] | 112% | 
CC(C)c1cc(-c2nnc(O)n2-c2ccc(CN3CCN(C(=O)O[C@H]4CC[C@@]5(C)C(=CC[C@@H]6[C@@H]5CC[C@]5(C)C(c7cccnc7)=CC[C@@H]65)C4)CC3)cc2)c(O)cc1O [SDC-TRAP-0150, (3S,8R,9S,10R,13S,14S)-10,13-dimethyl-17-(pyridin-3-yl)-2,3,4,7,8,9,10,11,12,13,14,15-dodecahydro-1H-cyclopenta[a]phenanthren-3-yl 4-(4-(3-(2,4-dihydroxy-5-isopropylphenyl)-5-hydroxy-4H-1,2,4-triazol-4-yl)benzyl) piperazine-1-carboxylate] | 103% | % Remaining (1 h) (10 μM): 103%
COc1cc(O)c(-c2nnc(C(=O)NC(C)C)n2-c2ccc(CN3CCC(C(=O)Nc4cccc5c4CN(C4CCC(=O)NC4=O)C5=O)CC3)cc2)cc1C(C)C (stereo not shown) [SDC-TRAP-0115, N-(2-(2,6-dioxopiperidin-3-yl)-1-oxoisoindolin-4-yl)-1-(4-(3-(2-hydroxy-5-isopropyl-4-methoxyphenyl)-5-(isopropylcarbamoyl)-4H-1,2,4-triazol-4-yl)benzyl)piperidine-4-carboxamide] | 85.9% | 
CCc1c2c(nc3ccc(O)cc13)-c1cc3c(c(=O)n1C2)COC(=O)C3(CC)OC(=O)N(C)CCCCN1CCN(Cc2ccc(-n3c(O)nnc3-c3cc(C(C)C)c(O)cc3O)cc2)CC1 (stereo not shown) [SDC-TRAP-0055, 4,11-diethyl-9-hydroxy-3,14-dioxo-3,4,12,14-tetrahydro-1H-pyrano[3′,4′:6,7]indolizino[1,2-b]quinolin-4-yl (4-(4-(4-(3-(2,4-dihydroxy-5-isopropylphenyl)-5-hydroxy-4H-1,2,4-triazol-4-yl)benzyl)piperazin-1-yl)butyl)(methyl)carbamate] | 103% | % Remaining (1 h, 37° C.) (10 µM): 103%
COc1ccc(-c2cnoc2-c2cc(OC)c(OC)c(OC)c2)cc1OC(=O)N1CCN(c2ccc(-n3c(O)nnc3-c3cc(C(C)C)c(O)cc3O)cc2)CC1 [SDC-TRAP-0099, 2-methoxy-5-(5-(3,4,5-trimethoxyphenyl)isoxazol-4-yl)phenyl-4-(4-(3-(2,4-dihydroxy-5-isopropylphenyl)-5-hydroxy-4H-1,2,4-triazol-4-yl)phenyl) piperazine-1-carboxylate] | 95.2% | 
CCNC(=O)c1nnc(-c2cc(C(C)C)c(O)cc2O)n1-c1ccc(CN2CCC(C(=O)N(C)CCCOC(=O)Nc3cccc4c3CN(C3CCC(=O)NC3=O)C4=O)CC2)cc1 (stereo not shown) [SDC-TRAP-0231, 3-(1-(4-(3-(2,4-dihydroxy-5-isopropylphenyl)-5-(ethylcarbamoyl)-4H-1,2,4-triazol-4-yl)benzyl)-N-methylpiperidine-4-carboxamido)propyl (2-(2,6-dioxopiperidin-3-yl)-1-oxoisoindolin-4-yl)carbamate] |  | % Remaining (1 h, 10 μM) (10 μM): 98.3%

Further lines, with some results ahead:

% Remaining (1 h) (10 µM) | SMILES | further results
77.4% | CCNC(=O)c1nnc(-c2cc(C(C)C)c(O)cc2O)n1-c1ccc(Oc2ccc(C(=O)N[C@@H](CC(C)C)C(=O)Nc3cccc4c3CN(C3CCC(=O)NC3=O)C4=O)cc2)cc1 (stereo partly drawn) [SDC-TRAP-0191, 5-(2,4-dihydroxy-5-isopropylphenyl)-4-(4-(4-(((2S)-1-((2-(2,6-dioxopiperidin-3-yl)-1-oxoisoindolin-4-yl)amino)-4-methyl-1-oxopentan-2-yl)carbamoyl)phenoxy)phenyl)-N-ethyl-4H-1,2,4-triazole-3-carboxamide] | 
63.2% | CO[C@H]1/C=C\C=C(/C)C(=O)NC2=CC(=O)C(NCCCCCCNC(=O)c3ncn4c(=O)n(C)nnc34)=C(C[C@@H](C)C[C@H](OC)[C@@H](O)[C@@H](C)/C=C(\C)[C@@H]1OC(N)=O)C2=O [SDC-TRAP-0267, (4E,6Z,8S,9S,10E,12S,13S,14S,16R)-13-hydroxy-8,14-dimethoxy-4,10,12,16-tetramethyl-19-((6-(3-methyl-4-oxo-3,4-dihydroimidazo[5,1-d][1,2,3,5]tetrazine-8-carboxamidohexyl)amino)-3,20,22-trioxo-2-azabicyclo[16.3.1]docosa-1(21),4,6,10,18-pentaen-9-yl carbamate] | 
98.0% | CCNC(=O)c1nnc(-c2cc(C(C)C)c(O)cc2O)n1-c1ccc(CN2CCC(C(=O)N3CCC[C@H]3C(=O)Nc3cccc4c3CN(C3CCC(=O)NC3=O)C4=O)CC2)cc1 (stereo partly drawn) [SDC-TRAP-0164, 5-(2,4-dihydroxy-5-isopropylphenyl)-4-(4-((4-((2S)-2-((2-(2,6-dioxopiperidin-3-yl)-1-oxoisoindolin-4-yl)carbamoyl)pyrrolidine-1-carbonyl)piperidin-1-yl)methyl)phenyl)-N-ethyl-4H-1,2,4-triazole-3-carboxamide] | 
63.8% | CC(C)c1cc(-c2nnc(O)n2-c2ccc3c(ccn3CCCC3CCN(C(=O)c4ncn5c(=O)n(C)nnc45)CC3)c2)c(O)cc1O [SDC-TRAP-0345, 8-(4-(3-(5-(3-(2,4-dihydroxy-5-isopropylphenyl)-5-hydroxy-4H-1,2,4-triazol-4-yl)-1H-indol-1-yl)propyl)piperidine-1-carbonyl)-3-methylimidazo[5,1-d][1,2,3,5]tetrazin-4(3H)-one] | 
87.3% | CC(C)c1cc(-c2nnc(O)n2-c2ccc(CC(=O)N(C)CCOC(=O)Nc3cccc4c3CN(C3CCC(=O)NC3=O)C4=O)cc2)c(O)cc1O (stereo not shown) [SDC-TRAP-0127, 2-(2-(4-(3-(2,4-dihydroxy-5-isopropylphenyl)-5-hydroxy-4H-1,2,4-triazol-4-yl)phenyl)-N-methylacetamido)ethyl(2-(2,6-dioxopiperidin-3-yl)-1-oxoisoindolin-4-yl)carbamate] | 
92.7% | CCNC(=O)c1nnc(-c2cc(C(C)C)c(O)cc2O)n1-c1ccc(Oc2ccc(C(=O)NC(Cc3ccccc3)C(=O)Nc3cc(-c4cnoc4-c4cc(OC)c(OC)c(OC)c4)ccc3OC)cc2)cc1 (stereo not shown) [SDC-TRAP-0158] | 
90.3% | CC(C)c1cc(-c2nnc(O)n2-c2ccc(N3CCN(C(=O)c4ccc(COC(=O)Nc5cccc6c5CN(C5CCC(=O)NC5=O)C6=O)cc4)CC3)cc2)c(O)cc1O (stereo not shown) [SDC-TRAP-0156, 4-(4-(4-(3-(2,4-Dihydroxy-5-isopropylphenyl)-5-hydroxy-4H-1,2,4-triazol-4-yl)phenyl)piperazine-1-carbonyl)benzyl (2-(2,6-dioxopiperidin-3-yl)-1-oxoisoindolin-4-yl)carbamate] | 
94.1% | CC(C)c1cc(-c2nnc(O)n2-c2ccc(CN3CCN(c4cnc(C(=O)Nc5cccc6c5CN(C5CCC(=O)NC5=O)C6=O)cn4)CC3)c(F)c2)c(O)cc1O (stereo not shown) [SDC-TRAP-0170, 5-(4-(4-(3-(2,4-dihydroxy-5-isopropylphenyl)-5-hydroxy-4H-1,2,4-triazol-4-yl)-2-fluorobenzyl)piperazin-1-yl)-N-(2-(2,6-dioxopiperidin-3-yl)-1-oxoisoindolin-4-yl)pyrazine-2-carboxamide] | 
98.1% | CCNC(=O)c1nnc(-c2cc(C(C)C)c(O)cc2O)n1-c1ccc(C(=O)N(C)CC(=O)Nc2cccc3c2CN(C2CCC(=O)NC2=O)C3=O)cc1 (stereo not shown) [SDC-TRAP-0147, 5-(2,4-dihydroxy-5-isopropylphenyl)-4-(4-((2-((2-(2,6-dioxopiperidin-3-yl)-1-oxoisoindolin-4-yl)amino)-2-oxoethyl)(methyl)carbamoyl)phenyl)-N-ethyl-4H-1,2,4-triazole-3-carboxamide] | 
81.4% | CC(C)c1cc(-c2nnc(O)n2-c2ccc(CN3CCN(C(=O)c4ccc(COC(=O)Nc5cccc6c5CN(C5CCC(=O)NC5=O)C6=O)cc4)CC3)c(F)c2)c(O)cc1O (stereo not shown) [SDC-TRAP-0157, 4-(4-(4-(3-(2,4-dihydroxy-5-isopropylphenyl)-5-hydroxy-4H-1,2,4-triazol-4-yl)-2-fluorobenzyl)piperazine-1-carbonyl)benzyl (2-(2,6-dioxopiperidin-3-yl)-1-oxoisoindolin-4-yl)carbamate] | 
